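Protocol summary: plate cells (96-well), add compound at 5 concentrations, incubate 48 h, interpolate endpoints linearly. TGI marks complete inhibition of growth.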

The test system of the first experiment is CCRF-CEM leukemia. As to the kind of experiment: inhibition of tumour cell growth, NCI panel, 48 h.
With `CCOc1cc(C2CC(c3ccc(NS(=O)(=O)c4cc([N+](=O)[O-])ccc4C)cc3)=NN2C(=O)c2ccccc2)ccc1O` (stereo unspecified), the TGI was above 100 µM.

Molecule `CC(C)/C(Cl)=N\OC(=O)Nc1ccc(C#N)cc1` gave a TGI of 6.85 µM.

Regarding `C=CC[C@]12C[C@@H](C(=O)OC)N(C(=O)OC)[C@H]1N(S(=O)(=O)c1ccccc1)c1ccccc12`, the TGI is above 100 µM.

In another experiment the test system is SF-295 CNS. The experiment in a line: inhibition of tumour cell growth, NCI panel, 48 h.
The molecule `CCOc1cc(C2CC(c3ccc(NS(=O)(=O)c4cc([N+](=O)[O-])ccc4C)cc3)=NN2C(=O)c2ccccc2)ccc1O` (stereo unspecified) displayed a TGI of 87.7 µM.

`CC(C)/C(Cl)=N\OC(=O)Nc1ccc(C#N)cc1` gave a TGI of 33.2 µM.

In turn, `C=CCSc1nc2ccccc2c(=O)n1Cc1ccco1` registered a TGI above 100 µM.

For a further experiment, the system named is SNB-75 CNS. The experiment in a line: inhibition of tumour cell growth, NCI panel, 48 h.
`CCOc1cc(C2CC(c3ccc(NS(=O)(=O)c4cc([N+](=O)[O-])ccc4C)cc3)=NN2C(=O)c2ccccc2)ccc1O` (stereo unspecified) came in with a TGI of 36.6 µM.

The molecule `CC(C)/C(Cl)=N\OC(=O)Nc1ccc(C#N)cc1` had a TGI of 31.6 µM.

Consider `C=CC[C@]12C[C@@H](C(=O)OC)N(C(=O)OC)[C@H]1N(S(=O)(=O)c1ccccc1)c1ccccc12`, for which the TGI was above 100 µM.

Molecule `C=CCSc1nc2ccccc2c(=O)n1Cc1ccco1` yielded a TGI above 100 µM.

Another experiment concerns RPMI-8226 leukemia. As to the kind of experiment: inhibition of tumour cell growth, NCI panel, 48 h.
Molecule `CCOc1cc(C2CC(c3ccc(NS(=O)(=O)c4cc([N+](=O)[O-])ccc4C)cc3)=NN2C(=O)c2ccccc2)ccc1O` (stereo unspecified) returned a TGI above 100 µM.

`CC(C)/C(Cl)=N\OC(=O)Nc1ccc(C#N)cc1` returned a TGI of 6.88 µM.

The molecule `C=CC[C@]12C[C@@H](C(=O)OC)N(C(=O)OC)[C@H]1N(S(=O)(=O)c1ccccc1)c1ccccc12` displayed a TGI above 100 µM.

`C=CCSc1nc2ccccc2c(=O)n1Cc1ccco1` showed a TGI above 100 µM.

In a further experiment the test system is T-47D breast. As to the kind of experiment: inhibition of tumour cell growth, NCI panel, 48 h.
The molecule `CCOc1cc(C2CC(c3ccc(NS(=O)(=O)c4cc([N+](=O)[O-])ccc4C)cc3)=NN2C(=O)c2ccccc2)ccc1O` (stereo unspecified) had a TGI of 71.3 µM.

Consider `CC(C)/C(Cl)=N\OC(=O)Nc1ccc(C#N)cc1`, for which the TGI is 40.2 µM.

Consider `C=CC[C@]12C[C@@H](C(=O)OC)N(C(=O)OC)[C@H]1N(S(=O)(=O)c1ccccc1)c1ccccc12`, for which the TGI is above 100 µM.

For `C=CCSc1nc2ccccc2c(=O)n1Cc1ccco1`, the TGI is above 100 µM.

A further experiment deals with DU-145 prostate. As to the kind of experiment: inhibition of tumour cell growth, NCI panel, 48 h.
`CCOc1cc(C2CC(c3ccc(NS(=O)(=O)c4cc([N+](=O)[O-])ccc4C)cc3)=NN2C(=O)c2ccccc2)ccc1O` (stereo unspecified): the TGI was above 100 µM.

In turn, `CC(C)/C(Cl)=N\OC(=O)Nc1ccc(C#N)cc1` gave a TGI of 32.2 µM.

With `C=CC[C@]12C[C@@H](C(=O)OC)N(C(=O)OC)[C@H]1N(S(=O)(=O)c1ccccc1)c1ccccc12`, the TGI is above 100 µM.

For `C=CCSc1nc2ccccc2c(=O)n1Cc1ccco1`, the TGI is above 100 µM.

A further experiment relates to OVCAR-8 ovarian. The experiment in a line: inhibition of tumour cell growth, NCI panel, 48 h.
Molecule `CCOc1cc(C2CC(c3ccc(NS(=O)(=O)c4cc([N+](=O)[O-])ccc4C)cc3)=NN2C(=O)c2ccccc2)ccc1O` (stereo unspecified) came in with a TGI above 100 µM.

The molecule `CC(C)/C(Cl)=N\OC(=O)Nc1ccc(C#N)cc1` displayed a TGI of 31 µM.

`C=CC[C@]12C[C@@H](C(=O)OC)N(C(=O)OC)[C@H]1N(S(=O)(=O)c1ccccc1)c1ccccc12`: the TGI was above 100 µM.

`C=CCSc1nc2ccccc2c(=O)n1Cc1ccco1` gave a TGI above 100 µM.

In another experiment the test system is A549 NSCLC. As to the kind of experiment: inhibition of tumour cell growth, NCI panel, 48 h.
Molecule `CCOc1cc(C2CC(c3ccc(NS(=O)(=O)c4cc([N+](=O)[O-])ccc4C)cc3)=NN2C(=O)c2ccccc2)ccc1O` (stereo unspecified) registered a TGI above 100 µM.

Take `CC(C)/C(Cl)=N\OC(=O)Nc1ccc(C#N)cc1`: the TGI worked out at 39.9 µM.

Regarding `C=CC[C@]12C[C@@H](C(=O)OC)N(C(=O)OC)[C@H]1N(S(=O)(=O)c1ccccc1)c1ccccc12`, the TGI is above 100 µM.

Regarding `C=CCSc1nc2ccccc2c(=O)n1Cc1ccco1`, the TGI is above 100 µM.

The subject of the next experiment is MCF7 breast. The experiment in a line: inhibition of tumour cell growth, NCI panel, 48 h.
In turn, `CCOc1cc(C2CC(c3ccc(NS(=O)(=O)c4cc([N+](=O)[O-])ccc4C)cc3)=NN2C(=O)c2ccccc2)ccc1O` (stereo unspecified) gave a TGI above 100 µM.

`CC(C)/C(Cl)=N\OC(=O)Nc1ccc(C#N)cc1` registered a TGI of 22.4 µM.

As for `C=CC[C@]12C[C@@H](C(=O)OC)N(C(=O)OC)[C@H]1N(S(=O)(=O)c1ccccc1)c1ccccc12`, the TGI was above 100 µM.

Molecule `C=CCSc1nc2ccccc2c(=O)n1Cc1ccco1` came in with a TGI above 100 µM.

The subject of another experiment is RXF 393 renal. The experiment in a line: inhibition of tumour cell growth, NCI panel, 48 h.
Consider `CCOc1cc(C2CC(c3ccc(NS(=O)(=O)c4cc([N+](=O)[O-])ccc4C)cc3)=NN2C(=O)c2ccccc2)ccc1O` (stereo unspecified), for which the TGI stood at 42.6 µM.

`CC(C)/C(Cl)=N\OC(=O)Nc1ccc(C#N)cc1` registered a TGI of 8.01 µM.

For the molecule `C=CC[C@]12C[C@@H](C(=O)OC)N(C(=O)OC)[C@H]1N(S(=O)(=O)c1ccccc1)c1ccccc12`, the TGI came out at 66.9 µM.

`C=CCSc1nc2ccccc2c(=O)n1Cc1ccco1` registered a TGI above 100 µM.

For a further experiment, the system named is NCI-H226 lung. As to the kind of experiment: inhibition of tumour cell growth, NCI panel, 48 h.
Molecule `CCOc1cc(C2CC(c3ccc(NS(=O)(=O)c4cc([N+](=O)[O-])ccc4C)cc3)=NN2C(=O)c2ccccc2)ccc1O` (stereo unspecified) gave a TGI above 100 µM.

In turn, `CC(C)/C(Cl)=N\OC(=O)Nc1ccc(C#N)cc1` displayed a TGI of 27.2 µM.

For `C=CC[C@]12C[C@@H](C(=O)OC)N(C(=O)OC)[C@H]1N(S(=O)(=O)c1ccccc1)c1ccccc12`, the TGI is above 100 µM.

For `C=CCSc1nc2ccccc2c(=O)n1Cc1ccco1`, the TGI was above 100 µM.

The next experiment relates to SR leukemia. The experiment in a line: inhibition of tumour cell growth, NCI panel, 48 h.
Turning to `CCOc1cc(C2CC(c3ccc(NS(=O)(=O)c4cc([N+](=O)[O-])ccc4C)cc3)=NN2C(=O)c2ccccc2)ccc1O` (stereo unspecified), the TGI was above 100 µM.

For the molecule `CC(C)/C(Cl)=N\OC(=O)Nc1ccc(C#N)cc1`, the TGI is above 25.6 µM.

The molecule `C=CC[C@]12C[C@@H](C(=O)OC)N(C(=O)OC)[C@H]1N(S(=O)(=O)c1ccccc1)c1ccccc12` showed a TGI above 100 µM.

In turn, `C=CCSc1nc2ccccc2c(=O)n1Cc1ccco1` gave a TGI above 100 µM.

For the next experiment, the system named is HS 578T breast. As to the kind of experiment: inhibition of tumour cell growth, NCI panel, 48 h.
Take `CCOc1cc(C2CC(c3ccc(NS(=O)(=O)c4cc([N+](=O)[O-])ccc4C)cc3)=NN2C(=O)c2ccccc2)ccc1O` (stereo unspecified): the TGI was above 100 µM.

`CC(C)/C(Cl)=N\OC(=O)Nc1ccc(C#N)cc1` yielded a TGI of 39.8 µM.

As to `C=CC[C@]12C[C@@H](C(=O)OC)N(C(=O)OC)[C@H]1N(S(=O)(=O)c1ccccc1)c1ccccc12`, the TGI was above 100 µM.

The molecule `C=CCSc1nc2ccccc2c(=O)n1Cc1ccco1` had a TGI above 100 µM.

The next experiment has as its system NCI-H522 lung. The experiment in a line: inhibition of tumour cell growth, NCI panel, 48 h.
Regarding `CCOc1cc(C2CC(c3ccc(NS(=O)(=O)c4cc([N+](=O)[O-])ccc4C)cc3)=NN2C(=O)c2ccccc2)ccc1O` (stereo unspecified), the TGI amounted to 64.5 µM.

Take `CC(C)/C(Cl)=N\OC(=O)Nc1ccc(C#N)cc1`: the TGI was determined as 3.21 µM.

Molecule `C=CC[C@]12C[C@@H](C(=O)OC)N(C(=O)OC)[C@H]1N(S(=O)(=O)c1ccccc1)c1ccccc12` came in with a TGI above 100 µM.

`C=CCSc1nc2ccccc2c(=O)n1Cc1ccco1` displayed a TGI above 100 µM.

Another experiment deals with MALME-3M melanoma. As to the kind of experiment: inhibition of tumour cell growth, NCI panel, 48 h.
The molecule `CCOc1cc(C2CC(c3ccc(NS(=O)(=O)c4cc([N+](=O)[O-])ccc4C)cc3)=NN2C(=O)c2ccccc2)ccc1O` (stereo unspecified) gave a TGI of 61.4 µM.

`CC(C)/C(Cl)=N\OC(=O)Nc1ccc(C#N)cc1` came in with a TGI of 6.81 µM.

Values taken from PubChem BioAssay (NCI).
